According to PMC6403271, “Characterization, mechanism of action and optimization of activity of a novel peptide-peptoid hybrid against bacterial pathogens involved in canine skin infections” (Scientific Reports, 2019):
Entries after “also recorded” stand apart in the source; their conditions may differ. Square brackets hold non-standard residues; d marks the D form. Peptide text beside a SMILES is read from it. N(1-naphthylmethyl)Gly = O=C(O)CNCc1cccc2ccccc12; N(4-MeBn)Gly = Cc1ccc(CNCC(=O)O)cc1; NBuGly = CCCCNCC(=O)O

What was measured:
MRSP E104 = assay: Flow cytometry (TO/PI) of antimicrobial-exposed cells; format: cell-based, Staphylococcus pseudintermedius; settings: MRSP E104, lysis concentration (1x MIC), 3 µg/ml, 1 h
Method: Freshly grown cultures (OD 0.2 at 600 nm) of MRSP E104 were exposed to 3 µg/ml of B1 or 2.5 µg/ml of nisin for 1 h and diluted 1:10 in flow cytometry analysis buffer (PBS supplemented with 1 mM EDTA, 0.01% Tween 20 and filtered by 0.22 µm membrane). Diluted cells were stained with 420 nM thiazole orange (TO, Sigma) and 48 µM propidium iodide (PI, Sigma) and analysed using BD ACCURI C6 flow cytometer (BD Biosciences). Unstained cells were used as negative control. Finally, the differentially labelled bacterial populations in antimicrobial-exposed cultures were plotted under FL3(red)/FL1(green) axis using the instrument’s software and categorised into four different conditions: P1 (unstained), P2 (dead cells), P3 (injured cells) and P4 (live cells).

[1] = system: DNA synthesis in MRSP E104; assay: Macromolecule biosynthesis rate, DNA (3H-Thymidine); format: cell-based, Staphylococcus pseudintermedius; settings: MRSP E104, 1.5 µg/mL, 20 min
Method: Macromolecule biosynthesis rate was measured in MRSP E104 following a protocol adapted from Ling et al.[65]. Briefly, E104 overnight culture was sub-cultured 1:100 in MHB II and grown up to OD 0.2 at 600 nm. Cells were pelleted down by centrifugation and resuspended in fresh medium followed by incubation for 20 min with B1 or nisin at 1.5 µg/ml and 1.25 µg/ml, respectively, and radiolabeled precursor: (50µCi) 3H-Thymidine (PerkinElmer) and (5µCi) 3H-glucosamine hydrochloride per ml for DNA and cell wall, respectively. A positive control without antimicrobial was maintained. After incubation, samples were precipitated with equal volume of cold 30% TCA (Sigma) on ice. Precipitates were filtered on a membrane filter and subsequently subjected to two washes of cold 15% TCA and two washes of cold water using vacuum manifold. Subsequently, filters were air dried overnight and then transferred to 10 ml scintillation vials. Finally, scintillation fluid (3 ml) was added to each vial and ^3H count was taken in Beckman Coulter LS6500 liquid scintillation counter for one minute. The radioactive counts of the control samples were considered to have 100% precursor incorporation and macromolecule synthesis. The percentage rates of the antimicrobial-exposed samples were calculated accordingly. Each experiment was performed with replicates and the average rates of incorporation were plotted.

P. aeruginosa isolates = assay: MIC, panel of 50 canine P. aeruginosa isolates; format: cell-based, Pseudomonas aeruginosa
Method: Activity of B1 was tested on 50P. aeruginosa isolates and 57S. pseudintermedius isolates (including 7 MRSP) that had been isolated in the diagnostic laboratory Sund Vet Diagnostik (University of Copenhagen) from various infections in dogs between 2009 and 2011. Representative MRSP (C22963), MSSA, and P. aeruginosa (26314) were used for testing the first set of B1 analogues.
MIC determination was performed by broth microdilution according to the Clinical and Laboratory Standard Institute (CLSI, M31-A3, 2008)[62]. In brief, each bacterial strain was diluted to concentration of 5 × 10^5 CFU/mL in Mueller Hinton broth II (MHB II) media (Oxoid) and added to a two-fold serial dilution of peptides and peptide-peptoid hybrids concentrations ranging from 1 to 64 µg/ml in 96-well plates (Nunc Internationals, Rochester, NY). The MICs were determined as a lowest concentration showing no visible growth after incubation for 18 hours at 37 °C. Experiments were performed in triplicates on two different days.

CCCCN(CC(=O)N[C@@H](CCCCN)C(=O)N(CC(=O)N(CC(=O)N(CC(N)=O)Cc1cccc2ccccc12)Cc1ccc(C)cc1)Cc1cccc2ccccc12)C(=O)[C@H](CCCCN)NC(=O)[C@@H](N)CCCCN [B1, Lys-Lys-(NBu)Gly-Lys-(N1-Nal)Gly-(N4-MeBn)Gly-(N1-Nal)Gly] (H-KK[NBuGly]K[N(1-naphthylmethyl)Gly][N(4-MeBn)Gly][N(1-naphthylmethyl)Gly]-NH2)
flow cytometry PI/TO staining (MRSP E104): Cell death | effect on DNA replication [1]: without affecting DNA replication; also recorded: no effect on DNA replication | MICs against a panel of 50 P. aeruginosa isolates (P. aeruginosa isolates): 8 to 16 µg/mL
